Laboratory results published in patent US9737075B2, “Synergistic benzoxaborole-containing anti-fungicidal composition” (The Penn State Research Foundation, priority 2015, dated 2017).
Values after ≈ are worked out from the molar mass of the structure shown. Like-named read-outs stand apart in the source and are kept apart here.

Experiments:
Format in all cases: cell-based
Phytophthora pini = assay: Broth microdilution MIC of individual antifungals; conditions: individual antifungal, 25% PDB, about 25° C., 72 hours, range over N independent triplicate studies
Fusarium verticillioides = assay: Broth microdilution MIC of individual antifungals; conditions: individual antifungal, 25% PDB, about 25° C., 72 hours, range over N independent triplicate studies, read-out: Independent MIC
[1] = system: Fusarium solani f. sp. pisi (MP VI); assay: Broth microdilution MIC of individual antifungals; conditions: read-out: Independent MIC
Mucor sp. = assay: Broth microdilution MIC of individual antifungals; conditions: individual antifungal, 25% PDB, about 25° C., 72 hours, range over N independent triplicate studies
[2] = system: Mycosphaerella zeae-maydis; assay: Broth microdilution MIC of individual antifungals; conditions: Didymella maydis, individual antifungal, 25% PDB, about 25° C., 72 hours, range over N independent triplicate studies
Rhizopus sp. = assay: Broth microdilution MIC of individual antifungals; conditions: read-out: Independent MIC
Alternaria solani = assay: Broth microdilution MIC of individual antifungals; conditions: individual antifungal, 25% PDB, about 25° C., 72 hours, range over N independent triplicate studies, read-out: Independent MIC
Pythium aphanodermatum = assay: Broth microdilution MIC of individual antifungals; conditions: individual antifungal, 25% PDB, about 25° C., 72 hours, range over N independent triplicate studies
Aspergillus fumigatus = assay: Broth microdilution MIC of individual antifungals; conditions: individual antifungal, 25% PDB, about 25° C., 72 hours, range over N independent triplicate studies, read-out: Independent MIC
[3] = system: Colletotrichum orbiculare; assay: Broth microdilution MIC of individual antifungals; conditions: read-out: Independent MIC
Magnaporthe grisea = assay: microbe, parasite or virus in culture; conditions: Pyricularia oryzae, 72 h, read-out: Independent MIC
Aspergillus flavus = assay: Broth microdilution MIC of individual antifungals; conditions: read-out: Independent MIC
Aspergillus niger = assay: Broth microdilution MIC of individual antifungals; conditions: read-out: Independent MIC
Botrytis cinerea 10-1728 = assay: Broth microdilution MIC of individual antifungals; conditions: 101728; Botrytis cinerea 10-1728; individual antifungal, 25% PDB, about 25° C., 72 hours; range over N independent triplicate studies; read-out: Independent MIC
Fusarium oxysporum ST33 = assay: Broth microdilution MIC of individual antifungals; conditions: individual antifungal, 25% PDB, about 25° C., 72 hours, range over N independent triplicate studies
Aureobasidium pullulans = assay: Broth microdilution MIC of individual antifungals; conditions: individual antifungal, 25% PDB, about 25° C., 72 hours, range over N independent triplicate studies, read-out: Independent MIC
Fusarium graminearum = assay: microbe, parasite or virus in culture; conditions: Fusarium graminearum, 72 h, read-out: Independent MIC
Stachybotrys chartarum = assay: Broth microdilution MIC of individual antifungals; conditions: individual antifungal, 25% PDB, about 25° C., 72 hours, range over N independent triplicate studies, read-out: Independent MIC
[4] = system: Fusarium oxysporum f. sp. lycopersici; assay: Broth microdilution MIC of individual antifungals; conditions: individual antifungal, 25% PDB, about 25° C., 72 hours, range over N independent triplicate studies
Sclerotinia homoeocarpa = assay: Broth microdilution MIC of individual antifungals; conditions: Clarireedia homoeocarpa; Sclerotinia homoeocarpa; individual antifungal, 25% PDB, about 25° C., 72 hours; range over N independent triplicate studies; read-out: Independent MIC
[5] = system: two dozen different fungal organisms; assay: Broth microdilution MIC, summary over the organisms examined; conditions: against many species tested here
Experimental: All antifungal susceptibility assays were conducted in triplicate and N independent times. Thus, the inhibition studies were conducted a total of 3·N times. […] Thus, each synergy assay (combination of two antifungals) was conducted in conjunction with independent MIC determination. FICI values were calculated by comparing the inhibition activity of the combination (benzoxaborole+another antifungal) against the efficacy of the individual antifungal within the same experiment (using the same experimental conditions).
The studies were performed in flat bottom, 96-well microtiter plates (Greiner Bio-One).
Plates sealed with clear polyester film (VWR) were incubated at a temperature of about 25° C. The progress of fungal growth was monitored at 48 hours, 72 hours, 7 days, and 15 days. […] In order to establish appropriate comparison between the different fungi, the FICI (thus, the MICs used) determination was done at 72 hours for all cases discussed herein.
The MICs of the individual antifungals (MICBoron and MICA) and in combination (MICBA) were determined after 72 hours of incubation. […] MICA is defined as the MIC value of every other individual non-benzoxaborole-based antifungal. MICBA is defined as the MIC value when the benzoxaborole antifungal is combined with another non-benzoxaborole antifungal. […] The combination studies were performed in triplicate in flat bottom 96-well microtiter plates with a final media volume of 0.2 mL/well.

Botrytis cinerea B17 = assay: Broth microdilution MIC of individual antifungals; conditions: Botrytis cinerea B17; individual antifungal, 25% PDB, about 25° C., 72 hours; range over N independent triplicate studies; read-out: Independent MIC
Penicillium chrysogenum = assay: Broth microdilution MIC of individual antifungals; conditions: read-out: Independent MIC
Candida albicans = assay: Broth microdilution MIC of individual antifungals; conditions: read-out: Independent MIC
Rhizoctonia solani = assay: Broth microdilution MIC of individual antifungals; conditions: read-out: Independent MIC
[6] = Fusarium solani f. sp. pisi (MP VI), individual antifungal, 25% PDB, about 25° C., 72 hours, range over N independent triplicate studies
[7] = Rhizopus, 72 h, Rhizopus sp., individual antifungal, 25% PDB, about 25° C., 72 hours, range over N independent triplicate studies
[8] = individual antifungal, 25% PDB, about 25° C., 72 hours, range over N independent triplicate studies

Row | Compound | MIC (Phytophthora pini) | MIC (Fusarium verticillioides) | MIC [1, 6] | MIC (Mucor sp.) | MIC [2] | MIC (Rhizopus sp.; [7]) | MIC (Alternaria solani) | MIC (Aspergillus fumigatus) | MIC [3, 8] | MIC (Magnaporthe grisea) | MIC (Aspergillus flavus; [8]) | MIC (Aspergillus niger; [8]) | MIC (Botrytis cinerea 10-1728) | MIC (Fusarium graminearum) | MIC (Sclerotinia homoeocarpa) | MIC [5] | MIC (Penicillium chrysogenum; [8]) | MIC (Rhizoctonia solani; [8]) | MIC (Aspergillus flavus; 72 h) | MIC (Candida albicans; 72 h) | other results
1 | O=C1C2CC=CCC2C(=O)N1SC(Cl)(Cl)Cl (stereo not drawn) [Captan, captan] | 0.39 µg/mL | 1 to 2 µg/mL | 3 to 3.12 µg/mL | 3.12 to 12.5 µg/mL | 1 to 1.56 µg/mL | 12.5 to 40 µg/mL | 1.5 to 3.12 µg/mL | 6.25 to 12.5 µg/mL | 0.39 to 0.78 µg/mL | 0.19 to 0.2 µg/mL (≈ 0.632 to 0.665 µM) | 12.5 to 25 µg/mL | 12.5 to 16 µg/mL | 0.94 to 1.56 µg/mL | 0.78 to 0.8 µg/mL (≈ 2.59 to 2.66 µM) | 2 to 4 µg/mL | > 25 µg/mL | 0.75 to 0.78 µg/mL |  |  |  | MIC (Pythium aphanodermatum): 28 µg/mL; MIC (Fusarium oxysporum ST33): 1 to 2 µg/mL; MIC (Aureobasidium pullulans): 0.375 to 0.78 µg/mL; MIC (Stachybotrys chartarum): 0.39 to 0.5 µg/mL; MIC [4]: 1.56 to 4 µg/mL; MIC (Botrytis cinerea B17): 1.88 to 4 µg/mL
2 | N#Cc1c(Cl)c(Cl)c(Cl)c(C#N)c1Cl [Chlorothalonil, chlorothalonil] |  | 0.75 to 0.78 µg/mL | 12.5 to 25 µg/mL | 0.78 to 1 µg/mL | 0.78 to 1 µg/mL | 0.78 µg/mL | 1 to 1.56 µg/mL | 0.1 to 0.2 µg/mL | 0.39 µg/mL |  | 0.1 to 0.2 µg/mL | 0.39 to 1 µg/mL | 0.2 to 0.5 µg/mL | 0.78 to 1.56 µg/mL (≈ 2.93 to 5.87 µM) | 0.39 to 0.78 µg/mL | > 25 µg/mL | 0.1 µg/mL | 1.56 µg/mL |  |  | MIC (Candida albicans; [8]): 0.78 µg/mL
3 | CNC(=S)S [Metam Sodium, Metam sodium] | 50 µg/mL | 25 µg/mL |  | 50 µg/mL | 6 to 6.25 µg/mL |  | 12.5 to 15 µg/mL | 25 µg/mL |  |  |  |  | 50 to 200 µg/mL | 12.5 to 25 µg/mL | 6.25 µg/mL | > 25 µg/mL |  | 25 to 50 µg/mL | 25 µg/mL | 25 µg/mL | MIC ([1]; Fusarium solani, 72 h): 25 to 50 µg/mL; MIC (Rhizopus sp.; Rhizopus, 72 h): 100 µg/mL; MIC ([3]; 72 h): 12.5 to 25 µg/mL; MIC (Aspergillus niger; 72 h): 50 µg/mL; MIC (Penicillium chrysogenum; 72 h): 50 µg/mL
4 | S=C(S)NCCNC(=S)S [Zineb, zineb] | 25 µg/mL | 3.12 to 6.25 µg/mL | 6.25 to 12.5 µg/mL |  | 1.56 to 2 µg/mL |  | 6.25 to 12.5 µg/mL | 0.78 to 1.56 µg/mL | 3.13 to 6.25 µg/mL | 0.78 to 1.56 µg/mL (≈ 3.67 to 7.34 µM) |  |  | 3 to 3.12 µg/mL | 1.56 µg/mL (≈ 7.34 µM) | 6.25 to 12.5 µg/mL | > 25 µg/mL |  |  | 1 to 1.56 µg/mL | 3.12 µg/mL | MIC (Rhizopus sp.; Rhizopus sp., individual antifungal, 25% PDB, about 25° C., 72 hours, range over N independent triplicate studies): 12.5 µg/mL; MIC (Rhizoctonia solani; 72 h): 3.12 µg/mL; MIC (Penicillium chrysogenum; 72 h): 1.56 to 6.25 µg/mL
